The results in this text go back to patent publication US20250064941A1, “SIGLEC LIGANDS, CONJUGATES, AND METHODS OF USE THEREOF” (Osprey Biopharmaceuticals, Inc., priority 2023, published 2025).

A value given as a limit tells only on which side of the number the result lay.

One experiment deals with cynomolgus Siglec-2/CD22 (Macaca fascicularis, UniProt A0A2K5WCZ6). As to the kind of experiment: biochemical. Format: binding. Conditions: SPR, steady-state analysis; read-out: Affinity cyno CD22. Put shortly:
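SPR with desialylated (SialoExo, 4 h, 37° C.) cynomolgus CD22 amine-coupled to a CM5 chip. Running buffer 10 mM HEPES, 150 mM NaCl, 0.05% Tween-20, pH 7.5, 1% DMSO, with solvent correction; 120 s dissociation. Affinities from steady-state analysis.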

In experiment [1] the target is T1, human Siglec-2/CD22 protein (Homo sapiens, UniProt P20273).
T1 construct: purchased Acro Biosystems SI2-H82E3
T1 sequence (P20273 20-847): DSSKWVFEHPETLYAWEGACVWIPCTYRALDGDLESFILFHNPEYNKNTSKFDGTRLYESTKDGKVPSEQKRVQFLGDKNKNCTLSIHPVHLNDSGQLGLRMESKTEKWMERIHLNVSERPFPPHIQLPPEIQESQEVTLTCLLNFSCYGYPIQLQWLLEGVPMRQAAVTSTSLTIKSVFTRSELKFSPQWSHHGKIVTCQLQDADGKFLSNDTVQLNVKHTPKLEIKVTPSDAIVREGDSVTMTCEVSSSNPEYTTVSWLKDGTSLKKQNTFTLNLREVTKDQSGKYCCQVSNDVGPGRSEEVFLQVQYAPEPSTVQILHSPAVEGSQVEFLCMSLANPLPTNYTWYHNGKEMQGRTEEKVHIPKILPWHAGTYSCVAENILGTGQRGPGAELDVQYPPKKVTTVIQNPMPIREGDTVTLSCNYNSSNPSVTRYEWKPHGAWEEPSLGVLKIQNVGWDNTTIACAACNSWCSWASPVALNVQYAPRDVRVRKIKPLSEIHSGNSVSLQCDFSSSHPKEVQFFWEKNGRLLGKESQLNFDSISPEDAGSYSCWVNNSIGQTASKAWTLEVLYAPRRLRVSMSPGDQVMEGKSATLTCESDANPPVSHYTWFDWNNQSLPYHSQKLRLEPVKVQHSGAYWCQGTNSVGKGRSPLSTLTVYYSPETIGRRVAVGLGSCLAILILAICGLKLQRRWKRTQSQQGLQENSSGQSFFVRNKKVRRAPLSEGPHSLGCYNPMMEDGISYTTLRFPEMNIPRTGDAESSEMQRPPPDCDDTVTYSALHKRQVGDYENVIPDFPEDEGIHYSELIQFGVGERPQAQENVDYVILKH
As to the kind of experiment: SPR binding affinity to human CD22. The following applies: steady-state analysis. A digest of the protocol: (§1)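 SialoExo pretreatment, 4 h 37° C.; biotinylated CD22 on SA chip, Biacore 8K. Buffer 10 mM HEPES, 150 mM NaCl, 0.05% Tween-20, pH 7.5, 1% DMSO. Dissociation 120 s; solvent-corrected; steady-state KD.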
On the technique in general: SPR reads the build-up and loss of mass on a sensor chip optically.

The target in experiment [2] is T2, mouse Siglec-2-Fc-Avi (CD22) (Mus musculus, UniProt P35329).
T2 construct: made in house
T2 sequence (P35329 22-708 limits assumed): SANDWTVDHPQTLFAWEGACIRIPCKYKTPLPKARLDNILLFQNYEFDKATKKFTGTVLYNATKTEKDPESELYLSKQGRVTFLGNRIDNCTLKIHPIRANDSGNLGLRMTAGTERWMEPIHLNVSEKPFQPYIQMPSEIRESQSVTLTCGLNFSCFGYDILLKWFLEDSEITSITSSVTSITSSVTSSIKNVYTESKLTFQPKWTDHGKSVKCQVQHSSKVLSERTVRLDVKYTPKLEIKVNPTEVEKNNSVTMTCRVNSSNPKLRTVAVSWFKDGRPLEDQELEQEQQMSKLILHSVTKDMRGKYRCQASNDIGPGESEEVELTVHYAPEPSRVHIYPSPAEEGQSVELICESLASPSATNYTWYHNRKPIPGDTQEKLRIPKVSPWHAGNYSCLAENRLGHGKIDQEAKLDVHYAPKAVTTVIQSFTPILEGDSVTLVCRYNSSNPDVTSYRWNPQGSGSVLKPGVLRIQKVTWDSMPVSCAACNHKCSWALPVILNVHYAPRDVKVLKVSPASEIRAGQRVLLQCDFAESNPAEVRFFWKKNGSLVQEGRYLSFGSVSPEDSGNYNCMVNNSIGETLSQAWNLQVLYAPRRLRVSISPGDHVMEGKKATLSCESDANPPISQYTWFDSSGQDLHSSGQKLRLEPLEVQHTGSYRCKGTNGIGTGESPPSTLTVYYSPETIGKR
As to the kind of experiment: SPR binding affinity to mouse CD22. Conditions: steady-state analysis. Put shortly: as §1

cynomolgus Siglec-2/CD22, sequence (A0A2K5WCZ6 entry or part of it): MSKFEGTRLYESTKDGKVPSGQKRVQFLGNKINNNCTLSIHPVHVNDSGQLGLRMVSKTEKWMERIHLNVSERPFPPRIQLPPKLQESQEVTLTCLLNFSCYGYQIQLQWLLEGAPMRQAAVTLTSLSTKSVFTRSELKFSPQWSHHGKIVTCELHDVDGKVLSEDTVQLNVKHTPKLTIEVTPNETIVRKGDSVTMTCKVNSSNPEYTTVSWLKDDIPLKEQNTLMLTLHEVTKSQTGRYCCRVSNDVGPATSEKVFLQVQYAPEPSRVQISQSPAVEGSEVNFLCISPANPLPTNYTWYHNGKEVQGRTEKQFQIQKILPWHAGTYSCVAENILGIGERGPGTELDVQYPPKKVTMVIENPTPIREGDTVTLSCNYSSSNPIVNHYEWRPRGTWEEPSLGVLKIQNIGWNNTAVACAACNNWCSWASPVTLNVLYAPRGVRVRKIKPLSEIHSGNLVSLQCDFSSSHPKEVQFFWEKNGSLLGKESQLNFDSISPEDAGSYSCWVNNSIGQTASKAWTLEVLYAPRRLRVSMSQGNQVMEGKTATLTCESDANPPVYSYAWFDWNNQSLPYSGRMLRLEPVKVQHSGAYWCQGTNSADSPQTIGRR

Take `O=C(O)CCCCCO[C@]1(C(=O)O)C[C@H](O)[C@@H](NC(=O)CO)[C@H]([C@H](O)[C@H](O)CNC(=O)Cc2ccc(Cl)cc2)O1` [Compound 121, (2R,4S,5R,6R)-2-((5-carboxypentyl)oxy)-6-((1R,2R)-3-(2-(4-chlorophenyl)acetamido)-1,2-dihydroxypropyl)-4-hydroxy-5-(2-hydroxyacetamido)tetrahydro-2H-pyran-2-carboxylic acid]: the Kd on cynomolgus Siglec-2/CD22 was below 1 µM; in experiment [1] it was below 1 µM; in experiment [2], 1 to 10 µM.

Take `C#CCCOc1ccc(CS[C@]2(C(=O)O)C[C@H](O)[C@@H](NC(=O)CO)[C@H]([C@H](O)[C@H](O)CNC(=O)Cc3ccc(Cl)cc3)O2)cc1` [Compound 122, (2S,4S,5R,6R)-2-((4-(but-3-yn-1-yloxy)benzyl)thio)-6-((1R,2R)-3-(2-(4-chlorophenyl)acetamido)-1,2-dihydroxypropyl)-4-hydroxy-5-(2-hydroxyacetamido)tetrahydro-2H-pyran-2-carboxylic acid]: the Kd (on cynomolgus Siglec-2/CD22; in experiment [1]; in experiment [2]) was below 1 µM throughout.

For `C#CCCOc1ccc(CO[C@]2(C(=O)O)C[C@H](O)[C@@H](NC(=O)CO)[C@H]([C@H](O)[C@H](O)CNC(=O)Cc3cccc(Cl)c3)O2)cc1` [Compound 123, (2R,4S,5R,6R)-2-((4-(but-3-yn-1-yloxy)benzyl)oxy)-6-((1R,2R)-3-(2-(3-chlorophenyl)acetamido)-1,2-dihydroxypropyl)-4-hydroxy-5-(2-hydroxyacetamido)tetrahydro-2H-pyran-2-carboxylic acid], the Kd is below 1 µM on cynomolgus Siglec-2/CD22, below 1 µM in experiment [1] and 1 to 10 µM in experiment [2].

Regarding `C#CCCOc1ccc(CO[C@]2(C(=O)O)C[C@H](O)[C@@H](NC(=O)CO)[C@H]([C@H](O)[C@H](O)CNC(=O)Cc3ccc(Cl)cc3)O2)cc1` [Compound 124, (2R,4S,5R,6R)-2-((4-(but-3-yn-1-yloxy)benzyl)oxy)-6-((1R,2R)-3-(2-(4-chlorophenyl)acetamido)-1,2-dihydroxypropyl)-4-hydroxy-5-(2-hydroxyacetamido)tetrahydro-2H-pyran-2-carboxylic acid], the Kd is 1 to 10 µM at cynomolgus Siglec-2/CD22, below 1 µM in experiment [1] and below 1 µM in experiment [2].

Turning to `C#CCOCCOCCO[C@]1(C(=O)O)C[C@H](O)[C@@H](NC(=O)CO)[C@H]([C@H](O)[C@H](O)CNC(=O)Cc2cccc(Cl)c2)O1` [Compound 125, (2R,4S,5R,6R)-6-((1R,2R)-3-(2-(3-chlorophenyl)acetamido)-1,2-dihydroxypropyl)-4-hydroxy-5-(2-hydroxyacetamido)-2-(2-(2-(prop-2-yn-1-yloxy)ethoxy)ethoxy)tetrahydro-2H-pyran-2-carboxylic acid], the Kd at cynomolgus Siglec-2/CD22 is 1 to 10 µM; in experiment [1], below 1 µM; in experiment [2], 1 to 10 µM.

For the compound `C#CCOCCOCCO[C@]1(C(=O)O)C[C@H](O)[C@@H](NC(=O)CO)[C@H]([C@H](O)[C@H](O)CNC(=O)Cc2ccc(Cl)cc2)O1` [Compound 126, (2R,4S,5R,6R)-6-((1R,2R)-3-(2-(4-chlorophenyl)acetamido)-1,2-dihydroxypropyl)-4-hydroxy-5-(2-hydroxyacetamido)-2-(2-(2-(prop-2-yn-1-yloxy)ethoxy)ethoxy)tetrahydro-2H-pyran-2-carboxylic acid], the Kd (on cynomolgus Siglec-2/CD22; in experiment [1]; in experiment [2]) was 1 to 10 µM each time.

Regarding `C#CCOCCCCCCO[C@]1(C(=O)O)C[C@H](O)[C@@H](NC(=O)CO)[C@H]([C@H](O)[C@H](O)CNC(=O)Cc2ccc(Cl)c(C(F)(F)F)c2)O1` [Compound 127, (2R,4S,5R,6R)-6-((1R,2R)-3-(2-(4-chloro-3-(trifluoromethyl)phenyl)acetamido)-1,2-dihydroxypropyl)-4-hydroxy-5-(2-hydroxyacetamido)-2-((6-(prop-2-yn-1-yloxy)hexyl)oxy)tetrahydro-2H-pyran-2-carboxylic acid], the Kd is below 1 µM at cynomolgus Siglec-2/CD22, below 1 µM in experiment [1] and 1 to 10 µM in experiment [2].

As to `C#CCOCCCCCCO[C@]1(C(=O)O)C[C@H](O)[C@@H](NC(=O)CO)[C@H]([C@H](O)[C@H](O)CNC(=O)Cc2ccc(Cl)c(O)c2)O1` [Compound 128, (2R,4S,5R,6R)-6-((1R,2R)-3-(2-(4-chloro-3-hydroxyphenyl)acetamido)-1,2-dihydroxypropyl)-4-hydroxy-5-(2-hydroxyacetamido)-2-((6-(prop-2-yn-1-yloxy)hexyl)oxy)tetrahydro-2H-pyran-2-carboxylic acid], the Kd (at cynomolgus Siglec-2/CD22; in experiment [1]; in experiment [2]) was below 1 µM throughout.

On to `C#CCOCCOCCO[C@]1(C(=O)O)C[C@H](O)[C@@H](NC(=O)CO)[C@H]([C@H](O)[C@H](O)CNC(=O)Cc2cc(O)cc(Cl)c2)O1` [Compound 129, (2R,4S,5R,6R)-6-((1R,2R)-3-(2-(3-chloro-5-hydroxyphenyl)acetamido)-1,2-dihydroxypropyl)-4-hydroxy-5-(2-hydroxyacetamido)-2-(2-(2-(prop-2-yn-1-yloxy)ethoxy)ethoxy)tetrahydro-2H-pyran-2-carboxylic acid], for which the figures for the Kd (on cynomolgus Siglec-2/CD22; in experiment [1]; in experiment [2]) were below 1 µM, below 1 µM and 1 to 10 µM, respectively.

Take `C#CCOCCCCCCO[C@]1(C(=O)O)C[C@H](O)[C@@H](NC(=O)CO)[C@H]([C@H](O)[C@H](O)CNC(=O)Cc2ccc(Cl)c(F)c2)O1` [Compound 130, (2R,4S,5R,6R)-6-((1R,2R)-3-(2-(4-chloro-3-fluorophenyl)acetamido)-1,2-dihydroxypropyl)-4-hydroxy-5-(2-hydroxyacetamido)-2-((6-(prop-2-yn-1-yloxy)hexyl)oxy)tetrahydro-2H-pyran-2-carboxylic acid]: the figures for the Kd (on cynomolgus Siglec-2/CD22; in experiment [1]; in experiment [2]) were below 1 µM, below 1 µM and 1 to 10 µM, respectively.

As to `C#CCCOc1ccc(CS[C@]2(C(=O)O)C[C@H](O)[C@@H](NC(=O)CO)[C@H]([C@H](O)[C@H](O)CNC(=O)Cc3ccc(Cl)c(O)c3)O2)cc1` [Compound 131, (2S,4S,5R,6R)-2-((4-(but-3-yn-1-yloxy)benzyl)thio)-6-((1R,2R)-3-(2-(4-chloro-3-hydroxyphenyl)acetamido)-1,2-dihydroxypropyl)-4-hydroxy-5-(2-hydroxyacetamido)tetrahydro-2H-pyran-2-carboxylic acid], the Kd (at cynomolgus Siglec-2/CD22; in experiment [1]; in experiment [2]) was below 1 µM throughout.

For the compound `C#CCOCCOCCO[C@]1(C(=O)O)C[C@H](O)[C@@H](NC(=O)CO)[C@H]([C@H](O)[C@H](O)CNC(=O)Cc2ccc(F)c(C(F)(F)F)c2)O1` [Compound 132, (2R,4S,5R,6R)-6-((1R,2R)-3-(2-(4-fluoro-3-(trifluoromethyl)phenyl)acetamido)-1,2-dihydroxypropyl)-4-hydroxy-5-(2-hydroxyacetamido)-2-(2-(2-(prop-2-yn-1-yloxy)ethoxy)ethoxy)tetrahydro-2H-pyran-2-carboxylic acid], the values for the Kd (at cynomolgus Siglec-2/CD22; in experiment [1]; in experiment [2]) were below 1 µM, 1 to 10 µM and above 10 µM, respectively.
